Results on two molecules are retold here after patent US20230131248A1, “A SKIN TEST PLATFORM FORMED FROM A COMPOSITE MATERIAL” (Nanyang Technological University, priority 2020, published 2023).

The data set in a line: Penetration of niacinamide and glycerin into silk artificial epidermis (cross-sectional Raman spectroscopy). The class given is in vitro ADME. Conditions: applied on surface for 30 min and 4 h.

Procedure: LabRAM Soleil™ Raman spectroscopy was used to measure the penetration of compounds into the silk film. The silk artificial epidermis was first immersed in water for 10 min. Then, the silk artificial epidermis was taken out and wiped with a wiper to remove surface water. Next, niacinamide or glycerin was applied on the surface of the silk artificial epidermis and left to sit for 30 min or 4 h. Finally, the resultant sample was taken for cross-sectional Raman spectroscopy to determine the penetration of the chemicals into silk artificial epidermis.

For the molecule `OCC(O)CO` [glycerin], the “penetration depth into silk artificial epidermis” value was “penetrate into half-depth”.

Take `NC(=O)c1cccnc1` [niacinamide]: the “penetration depth into silk artificial epidermis” value is given as “penetrate into half-depth”.
